Data as given in patent publication US6410553B1, “Benzosulfones and related compositions and methods” (Ortho-McNeil Pharmaceutical, Inc., priority 2000, dated 2002).

Target: T1, calcium channel (3H-nitrendipine binding, rabbit heart membranes) (Oryctolagus cuniculus, UniProt P15381)
T1 construct: from tissue; host or cells: rabbit heart (crude membrane pellet)
Assay: Assay for Inhibition of Nitrendipine Binding
Details: 3H-nitrendipine (0.05-0.50 nM), 90 minutes at 4° C.
Procedure: Assay for Inhibition of Nitrendipine Binding
Female, New Zealand white rabbits (1-2 kg) are sacrificed by cervical dislocation, and the heart is immediately removed, cleaned and chopped into small pieces. The tissue is homogenized in 5×times volume of 0.05M Hepes buffer, pH 7.4. The homogenate is centrifuged at 4000 g for 10 minutes, and the supernatant is re-centrifuged at 42,000×g for 90 minutes. The resulting membrane pellet is resuspended (0.7 ml/g weight) in 0.05M Hepes, pH 7.4 and stored at […] until used. Each tube of the binding assay contains ^3H-nitrendipine (0.05-0.50 nM), buffer, membranes (0.10 ml), and test compound in a total volume of 1.0 ml. After 90 minutes at 4° C., the bound nitrendipine is separated from the unbound by filtration on Whatman GF/C filters. After rinsing, the filters are dried and counted in a liquid scintillation counter.
Non-specific binding of ^3H-nitrendipine (that amount bound in the presence of excess unlabelled nitrendipine) is subtracted from the total bound to obtain specifically bound radiolabeled nitrendipine. The amount of specifically bound nitrendipine in the presence of a test compound is compared to that amount bound in the absence of a compound. A percent displacement (or inhibition) can then be calculated.

T1 sequence (P15381 whole entry, other chains not shown): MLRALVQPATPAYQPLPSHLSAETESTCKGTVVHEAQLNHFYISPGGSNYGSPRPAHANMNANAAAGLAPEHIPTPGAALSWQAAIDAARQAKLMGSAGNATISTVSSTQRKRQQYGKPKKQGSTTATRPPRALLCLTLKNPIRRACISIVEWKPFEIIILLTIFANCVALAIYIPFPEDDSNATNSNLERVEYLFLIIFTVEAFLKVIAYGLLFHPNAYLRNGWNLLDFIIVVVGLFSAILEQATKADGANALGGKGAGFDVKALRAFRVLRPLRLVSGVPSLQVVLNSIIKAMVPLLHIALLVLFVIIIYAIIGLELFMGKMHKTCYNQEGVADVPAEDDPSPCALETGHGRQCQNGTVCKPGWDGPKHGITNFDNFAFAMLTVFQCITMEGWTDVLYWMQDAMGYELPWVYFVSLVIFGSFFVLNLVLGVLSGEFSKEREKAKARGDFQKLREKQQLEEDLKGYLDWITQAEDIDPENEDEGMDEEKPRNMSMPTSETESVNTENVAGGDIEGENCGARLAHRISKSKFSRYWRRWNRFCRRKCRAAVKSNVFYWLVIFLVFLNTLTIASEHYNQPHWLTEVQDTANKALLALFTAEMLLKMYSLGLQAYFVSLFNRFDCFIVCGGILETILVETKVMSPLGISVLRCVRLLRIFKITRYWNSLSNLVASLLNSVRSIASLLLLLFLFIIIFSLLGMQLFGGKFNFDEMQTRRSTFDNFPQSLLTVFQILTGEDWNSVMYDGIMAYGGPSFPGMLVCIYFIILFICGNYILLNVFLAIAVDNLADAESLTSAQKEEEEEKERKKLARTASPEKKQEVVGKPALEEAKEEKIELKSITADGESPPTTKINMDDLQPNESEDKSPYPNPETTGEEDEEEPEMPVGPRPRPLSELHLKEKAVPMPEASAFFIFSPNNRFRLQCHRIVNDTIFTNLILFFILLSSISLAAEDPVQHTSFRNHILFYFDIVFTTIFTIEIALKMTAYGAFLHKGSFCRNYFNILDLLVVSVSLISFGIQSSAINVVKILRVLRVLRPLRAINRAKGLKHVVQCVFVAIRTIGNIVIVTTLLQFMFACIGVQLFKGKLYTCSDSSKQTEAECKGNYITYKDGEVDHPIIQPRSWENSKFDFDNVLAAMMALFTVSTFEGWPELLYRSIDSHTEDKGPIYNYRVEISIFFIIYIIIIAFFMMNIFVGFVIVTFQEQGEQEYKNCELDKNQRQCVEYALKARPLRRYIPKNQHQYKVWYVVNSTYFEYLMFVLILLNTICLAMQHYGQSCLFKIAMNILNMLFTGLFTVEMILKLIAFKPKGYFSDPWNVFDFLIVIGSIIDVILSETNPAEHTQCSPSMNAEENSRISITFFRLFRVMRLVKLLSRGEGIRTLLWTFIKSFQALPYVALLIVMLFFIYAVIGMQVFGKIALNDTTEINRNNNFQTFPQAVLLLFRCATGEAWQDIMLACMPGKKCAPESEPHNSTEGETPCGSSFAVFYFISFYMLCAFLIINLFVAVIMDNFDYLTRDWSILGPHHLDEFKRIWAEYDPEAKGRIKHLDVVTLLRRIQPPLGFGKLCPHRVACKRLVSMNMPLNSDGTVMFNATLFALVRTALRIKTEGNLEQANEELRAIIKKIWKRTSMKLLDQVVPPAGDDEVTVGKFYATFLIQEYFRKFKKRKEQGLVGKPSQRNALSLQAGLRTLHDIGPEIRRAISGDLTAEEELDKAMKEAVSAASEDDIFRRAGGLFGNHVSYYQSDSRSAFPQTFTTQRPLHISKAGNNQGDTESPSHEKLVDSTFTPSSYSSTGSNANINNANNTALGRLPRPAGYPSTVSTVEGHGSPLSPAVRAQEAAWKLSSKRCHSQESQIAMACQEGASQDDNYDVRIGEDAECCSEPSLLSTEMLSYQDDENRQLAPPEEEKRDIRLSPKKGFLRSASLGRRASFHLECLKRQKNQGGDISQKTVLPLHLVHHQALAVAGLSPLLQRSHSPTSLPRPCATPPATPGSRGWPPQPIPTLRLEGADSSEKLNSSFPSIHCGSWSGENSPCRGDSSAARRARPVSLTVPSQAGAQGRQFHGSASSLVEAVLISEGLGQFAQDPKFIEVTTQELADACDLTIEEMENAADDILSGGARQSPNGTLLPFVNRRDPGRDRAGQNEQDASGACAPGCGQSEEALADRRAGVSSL
T1 sequence (P13806 27-960 partner limits assumed, other chains not shown): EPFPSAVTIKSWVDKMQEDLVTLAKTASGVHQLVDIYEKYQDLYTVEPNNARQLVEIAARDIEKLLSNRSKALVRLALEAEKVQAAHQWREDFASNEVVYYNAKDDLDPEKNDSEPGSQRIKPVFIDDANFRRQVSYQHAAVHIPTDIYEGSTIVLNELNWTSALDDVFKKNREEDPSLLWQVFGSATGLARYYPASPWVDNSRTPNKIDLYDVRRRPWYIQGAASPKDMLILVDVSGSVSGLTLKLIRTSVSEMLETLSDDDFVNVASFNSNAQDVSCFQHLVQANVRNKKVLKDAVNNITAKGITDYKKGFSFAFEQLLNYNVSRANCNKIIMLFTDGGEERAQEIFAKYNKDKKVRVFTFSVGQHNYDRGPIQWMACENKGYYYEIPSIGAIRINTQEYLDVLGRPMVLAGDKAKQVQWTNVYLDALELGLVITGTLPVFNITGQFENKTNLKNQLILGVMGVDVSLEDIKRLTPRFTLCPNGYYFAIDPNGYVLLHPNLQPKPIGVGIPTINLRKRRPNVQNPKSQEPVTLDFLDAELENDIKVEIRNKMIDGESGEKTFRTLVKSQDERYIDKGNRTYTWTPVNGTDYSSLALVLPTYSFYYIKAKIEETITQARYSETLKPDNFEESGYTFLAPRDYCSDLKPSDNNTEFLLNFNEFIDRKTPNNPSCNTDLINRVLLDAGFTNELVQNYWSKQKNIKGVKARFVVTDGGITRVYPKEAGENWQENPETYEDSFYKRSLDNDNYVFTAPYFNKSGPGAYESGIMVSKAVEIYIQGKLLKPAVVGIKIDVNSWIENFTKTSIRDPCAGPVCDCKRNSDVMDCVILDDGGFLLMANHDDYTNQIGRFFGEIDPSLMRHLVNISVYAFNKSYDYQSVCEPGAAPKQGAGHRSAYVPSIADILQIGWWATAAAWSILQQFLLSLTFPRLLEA
T1 sequence (P13806 961-1106 partner limits assumed, other chains not shown): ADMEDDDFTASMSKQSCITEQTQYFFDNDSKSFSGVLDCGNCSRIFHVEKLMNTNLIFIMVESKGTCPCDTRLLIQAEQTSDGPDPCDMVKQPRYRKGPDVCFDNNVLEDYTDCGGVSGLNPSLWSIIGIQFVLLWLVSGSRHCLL

SMILES	IC50 [nM]
COC(=O)C1=C(C)NC2=C(C1c1ccccc1Cl)S(=O)(=O)CCc1ccccc12 (centres unmarked) [Compound 1, [3]Benzothiepino[1,2-b]pyridine-3-carboxylic acid, 4-(2-chlorophenyl)-1,4,6,7-tetrahydro-2-methyl-, methyl ester, 5,5-dioxide]	612
CC1=C(C(=O)OCCN(C)Cc2ccccc2)C(c2cccc(Cl)c2Cl)C2=C(N1)c1ccccc1CCS2(=O)=O (centres unmarked) [Compound 2, [3]Benzothiepino[1,2-b]pyridine-3-carboxylic acid, 4-(2,3-dichlorophenyl)-1,4,6,7-tetrahydro-2-methyl-, 2-[methyl(phenylmethyl)amino]ethyl ester, 5,5-dioxide]	118
COC(=O)C1=C(C)NC2=C(C1c1cccc(Cl)c1Cl)S(=O)(=O)CCc1ccccc12 (centres unmarked) [Compound 3, [3]Benzothiepino[1,2-b]pyridine-3-carboxylic acid, 4-(2,3-dichlorophenyl)-1,4,6,7-tetrahydro-2-methyl-, methyl ester, 5,5-dioxide]	38
COC(=O)C1=C(C)NC2=C(C1c1c(F)c(F)c(F)c(F)c1F)S(=O)(=O)CCc1ccccc12 (centres unmarked) [Compound 4, [3]Benzothiepino[1,2-b]pyridine-3-carboxylic acid, 1,4,6,7-tetrahydro-2-methyl-4-(pentafluorophenyl)-, methyl ester, 5,5-dioxide]	261
COC(=O)C1=C(C)NC2=C(C1c1ccccc1[N+](=O)[O-])S(=O)(=O)CCc1ccccc12 (centres unmarked) [Compound 5, [3]Benzothiepino[1,2-b]pyridine-3-carboxylic acid, 1,4,6,7-tetrahydro-2-methyl-4-(2-nitrophenyl)-, methyl ester, 5,5-dioxide]	1900
COC(=O)C1=C(C)NC2=C(C1c1cccc(Cl)c1)S(=O)(=O)CCc1ccccc12 (centres unmarked) [Compound 6, [3]Benzothiepino[1,2-b]pyridine-3-carboxylic acid, 4-(3-chlorophenyl)-1,4,6,7-tetrahydro-2-methyl-, methyl ester, 5,5-dioxide]	337
CC1=C(C(=O)OCCN(C)Cc2cccs2)C(c2cccc(Cl)c2Cl)C2=C(N1)c1ccccc1CCS2(=O)=O (centres unmarked) [Compound 7, [3]Benzothiepino[1,2-b]pyridine-3-carboxylic acid, 4-(2,3-dichlorophenyl)-1,4,6,7-tetrahydro-2-methyl-, 2-[methyl(2-thienylmethyl)amino]ethyl ester, 5,5-dioxide]	38
COC(=O)C1=C(C)NC2=C(C1c1cccc([N+](=O)[O-])c1)S(=O)(=O)CCc1ccccc12 (centres unmarked) [Compound 8, [3]Benzothiepino[1,2-b]pyridine-3-carboxylic acid, 1,4,6,7-tetrahydro-2-methyl-4-(3-nitrophenyl)-, methyl ester, 5,5-dioxide]	261
COC(=O)C1=C(C)NC2=C(C1c1c(O)cccc1Cl)S(=O)(=O)CCc1ccccc12 (centres unmarked) [Compound 9, [3]Benzothiepino[1,2-b]pyridine-3-carboxylic acid, 4-(2-chloro-6-hydroxyphenyl)-1,4,6,7-tetrahydro-2-methyl-, methyl ester, 5,5-dioxide]	1300
CC1=C(C(=O)OCCN(C)Cc2cccs2)C(c2ccccc2Cl)C2=C(N1)c1ccccc1CCS2(=O)=O (centres unmarked) [Compound 10, [3]Benzothiepino[1,2-b]pyridine-3-carboxylic acid, 4-(2-chlorophenyl)-1,4,6,7-tetrahydro-2-methyl-, 2-[methyl(2-thienylmethyl)amino]ethyl ester, 5,5-dioxide]	99
CC1=C(C(=O)OCCN(C)Cc2ccccc2)C(c2ccccc2Cl)C2=C(N1)c1ccccc1CCS2(=O)=O (centres unmarked) [Compound 11, [3]Benzothiepino[1,2-b]pyridine-3-carboxylic acid, 4-(2-chlorophenyl)-1,4,6,7-tetrahydro-2-methyl-, 2-[methyl(phenylmethyl)amino]ethyl ester, 5,5-dioxide]	453
